Laboratory results published in paper PMC4877006, “From Binding-Induced Dynamic Effects in SH3 Structures to Evolutionary Conserved Sectors” (PLoS Computational Biology, 2016).

What was measured:
Parameters in all cases: species or system chicken
[1] = biological target: T1, c-Src F18W (SH3 domain) (Gallus gallus, UniProt P00523, F86W); assay: ITC binding of peptide RLP2 to c-Src SH3 F18W; details: ITC, 25 °C
T1 construct: The plasmid pET15b containing the chicken c-Src-SH3 domain gene; made in house
Experimental: (§1) Differential Scanning Calorimetry (DSC) was used to evaluate the effect of the mutation on the conformational equilibrium and stability of the protein. Isothermal Titration Calorimetry (ITC) measured the binding energetics of all mutants to the RLP2 ligand at 25°C. The results for the 15 mutants studied are summarized in Figs 1D, S1 and S2, as well as S3 and S4 Tables.
(§2) The plasmid pET15b containing the chicken c-Src-SH3 domain gene was a generous gift from Dr. E. Freire (Johns Hopkins University). The genes encoding for the c-Src-SH3 mutants were obtained by site directed mutagenesis using the QuickChange Site-Directed-Mutagenesis Kit (Stratagene) taking the WT c-Src-SH3 plasmid as template or purchased from Top Gene Technologies, Canada. WT and mutants of c-Src-SH3 domain were expressed and purified as previously described for the wild type protein [68]. The peptide RLP2 (Ac-RALPPLPRY-NH2) was bought from Peptide 2.0 (Piscataway, USA) and JPT (Berlin, Germany) with a purity > 95%. Protein concentration was determined by absorbance at 280 nm using an extinction coefficient of 16500 M^-1·cm^-1. Peptide concentration was determined by absorbance at 274 nm using an extinction coefficient of 1400 M^-1·cm^-1.
(§3) Isothermal titration calorimetry was performed using a high-precision VP titration calorimetric system (Microcal Inc., Northampton, MA) as previously described. […] Titrations were made using a profile of injection volumes from 3 μL to 20 μL to define the titration curve more clearly. The heat produced by the binding reaction between the Src-SH3 domain and the peptide ligand was calculated as the difference between the heat of reaction and the corresponding heat of dilution, as obtained from independent titrations of the peptide ligand into the buffer. The resulting binding isotherms were analyzed by non-linear least-square fittings of the experimental data to a model corresponding to a single set of identical sites, as described before.
(§4) Supplementary file pcbi.1004938.s008.doc: S3 Table Analysis of Src SH3 binding affinities through ITC. Thermodynamic binding affinity to peptide RLP2. A * indicates experiment made by fluorescence titration only. (DOC) Click here for additional data file.

[2] = biological target: T2, c-Src H59R (SH3 domain) (Gallus gallus, UniProt P00523, H122R/Q128R); assay: ITC binding of peptide RLP2 to c-Src SH3 H59R; details: 25 °C
T2 construct: The plasmid pET15b containing the chicken c-Src-SH3 domain gene; made in house
Experimental: as §1, §2, §3, §4

[3] = biological target: T3, c-Src N45S (SH3 domain) (Gallus gallus, UniProt P00523, N113S); assay: ITC binding of peptide RLP2 to c-Src SH3 N45S; details: 25 °C
T3 construct: The plasmid pET15b containing the chicken c-Src-SH3 domain gene; made in house
Experimental: as §1, §2, §3, §4

[4] = biological target: T4, c-Src F34I (SH3 domain) (Gallus gallus, UniProt P00523, F102I/Q128R); assay: ITC binding of peptide RLP2 to c-Src SH3 F34I; details: 25 °C
T4 construct: The plasmid pET15b containing the chicken c-Src-SH3 domain gene; made in house
Experimental: as §1, §2, §3, §4

[5] = biological target: T5, c-Src L32V (SH3 domain) (Gallus gallus, UniProt P00523, L100V/Q128R); assay: Fluorescence titration binding of peptide RLP2 to c-Src SH3 L32V; details: fluorescence titration only, 25 °C
T5 construct: The plasmid pET15b containing the chicken c-Src-SH3 domain gene; made in house
Excerpt: as §2, §4

[6] = biological target: T6, c-Src R73E (SH3 domain) (Gallus gallus, UniProt P00523, Q128E); assay: ITC binding of peptide RLP2 to c-Src SH3 R73E; details: 25 °C
T6 construct: The plasmid pET15b containing the chicken c-Src-SH3 domain gene; made in house
Experimental: as §1, §2, §3, §4

[7] = system: c-Src S26A (SH3 domain); assay: ITC binding of peptide RLP2 to c-Src SH3 S26A; details: 25 °C
Experimental: as §1, §2, §3, §4

[8] = biological target: T7, c-Src wt (SH3 domain) (Gallus gallus, UniProt P00523, Q128R); assay: ITC binding of peptide RLP2 to c-Src SH3 wt; details: 25 °C
T7 construct: The plasmid pET15b containing the chicken c-Src-SH3 domain gene; made in house
Experimental: as §1, §2, §3, §4

[9] = binding of RLP2, H59R relative to wt
[10] = binding of RLP2, N45S relative to wt
[11] = binding of RLP2, F34I relative to wt
[12] = binding of RLP2, R73E relative to wt
[13] = binding of RLP2, S26A relative to wt
[14] = binding of RLP2, wt = reference

∆Gb (25 ºC) ([1]; binding of RLP2, F18W): -6.40 ± 0.01 kcal/mol | ∆Hb (25 ºC) ([1]; binding of RLP2, F18W): -13.0 ± 0.1 kcal/mol | Kd ([1]; RLP2 about 2 mM titrated into SH3 (50-122 μM), F18W, read-out: Kd (25 ºC)): 20.2 ± 0.3 µM | ∆∆Gb (25 ºC) [2, 9]: -0.13 ± 0.03 kcal/mol | ∆∆Hb (25 ºC) [2, 9]: -0.1 ± 0.3 kcal/mol | ∆Gb (25 ºC) ([2]; ITC, binding of RLP2, H59R): -6.76 ± 0.01 kcal/mol | ∆Hb (25 ºC) ([2]; ITC, binding of RLP2, H59R): -14.3 ± 0.2 kcal/mol | Kd ([2]; ITC, RLP2 about 2 mM titrated into SH3 (50-122 μM), H59R, read-out: Kd (25 ºC)): 11 ± 0.2 µM | ∆∆Gb (25 ºC) [3, 10]: 0.19 ± 0.04 kcal/mol | ∆∆Hb (25 ºC) [3, 10]: 0.1 ± 0.3 kcal/mol | ∆Gb (25 ºC) ([3]; ITC, binding of RLP2, N45S): -6.44 ± 0.02 kcal/mol | ∆Hb (25 ºC) ([3]; ITC, binding of RLP2, N45S): -14.1 ± 0.2 kcal/mol | Kd ([3]; ITC, RLP2 about 2 mM titrated into SH3 (50-122 μM), N45S, read-out: Kd (25 ºC)): 19 ± 0.6 µM | ∆∆Gb (25 ºC) [4, 11]: 0.79 ± 0.03 kcal/mol | ∆∆Hb (25 ºC) [4, 11]: 0.6 ± 0.3 kcal/mol | ∆Gb (25 ºC) ([4]; ITC, binding of RLP2, F34I): -5.84 ± 0.01 kcal/mol | ∆Hb (25 ºC) ([4]; ITC, binding of RLP2, F34I): -13.6 ± 0.3 kcal/mol | Kd ([4]; ITC, RLP2 about 2 mM titrated into SH3 (50-122 μM), F34I, read-out: Kd (25 ºC)): 52.6 ± 1.2 µM | ∆∆Gb (25 ºC) ([5]; L32V relative to wt): 1.76 ± 0.07 kcal/mol | ∆Gb (25 ºC) ([5]; binding of RLP2, L32V): -4.87 ± 0.06 kcal/mol | Kd ([5]; L32V, read-out: Kd (25 ºC)): 269 ± 29 µM | ∆∆Gb (25 ºC) [6, 12]: -0.24 ± 0.04 kcal/mol | ∆∆Hb (25 ºC) [6, 12]: -0.1 ± 0.3 kcal/mol | ∆Gb (25 ºC) ([6]; ITC, binding of RLP2, R73E): -6.87 ± 0.03 kcal/mol | ∆Hb (25 ºC) ([6]; ITC, binding of RLP2, R73E): -14.3 ± 0.2 kcal/mol | Kd ([6]; ITC, RLP2 about 2 mM titrated into SH3 (50-122 μM), R73E (control), read-out: Kd (25 ºC)): 9.3 ± 0.5 µM | ∆∆Gb (25 ºC) [7, 13]: 0.18 ± 0.06 kcal/mol | ∆∆Hb (25 ºC) [7, 13]: 0.4 ± 0.5 kcal/mol | ∆Gb (25 ºC) ([7]; ITC, binding of RLP2, S26A): -6.45 ± 0.05 kcal/mol | ∆Hb (25 ºC) ([7]; ITC, binding of RLP2, S26A): -13.8 ± 0.5 kcal/mol | Kd ([7]; ITC, RLP2 about 2 mM titrated into SH3 (50-122 μM), S26A (control), read-out: Kd (25 ºC)): 18.8 ± 1.4 µM | ∆∆Gb (25 ºC) [8, 14]: 0 kcal/mol | ∆∆Hb (25 ºC) [8, 14]: 0 kcal/mol | ∆Gb (25 ºC) ([8]; ITC, binding of RLP2, wt): -6.63 ± 0.03 kcal/mol | ∆Hb (25 ºC) ([8]; ITC, binding of RLP2, wt): -14.2 ± 0.2 kcal/mol | Kd ([8]; ITC, RLP2 about 2 mM titrated into SH3 (50-122 μM), single set of identical sites, wt, read-out: Kd (25 ºC)): 13.8 ± 0.6 µM
Substance: Ac-RALPPLPRY-NH2 [RLP2, Ac-RALPPLPRY-NH2]
